Tests used:
Test in all cases: relative viability vs DMSO control (72 h) (fraction); higher = more viable cells
G401 = system: G401
Method in brief: (§1)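 Sarcoma cell lines were seeded in 384-well plates at densities chosen for 80–90% confluence, then 24 h later given 2.5 µl of serially diluted compound drawn from source plates spanning 10 mM to 0.0002 mM. They were held 72 h at 37 °C, 5% CO2, with 0.1% DMSO vehicle and a 5 µM positive control included. Relative viability was read with ATPLite as percent growth and averaged over up to triplicate wells. Rescaling placed full at 1 and none at 0.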

VA-ES-BJ = system: VA-ES-BJ
Method in brief: as §1

SW872 = system: SW872
Method in brief: as §1

KHOS-240S = system: KHOS-240S
Method in brief: as §1

SK-LMS-1 = system: SK-LMS-1
Method in brief: as §1

SW982 = system: SW982
Method in brief: as §1

A204 = system: A204
Method in brief: as §1

RD = system: RD
Method in brief: as §1

MES-SA = system: MES-SA
Method in brief: as §1

SK-ES-1 = system: SK-ES-1
Method in brief: as §1

SW1353 = system: SW1353
Method in brief: as §1

HS729 = system: HS729
Method in brief: as §1

Cn1cnc2c(F)c(Nc3ccc(Br)cc3Cl)c(C(=O)NOCCO)cc21 [Selumetinib]
Conditions	relative viability
A204, 0.00017 µM	1.03
A204, 0.00051 µM	1.02
A204, 0.00152 µM	1.01
A204, 0.00457 µM	1.055
A204, 0.01372 µM	0.988
A204, 0.04115 µM	0.977
A204, 0.1235 µM	0.947
A204, 0.3704 µM	0.973
A204, 1.111 µM	0.939
A204, 3.333 µM	0.9367
A204, 10 µM	0.811
G401, 0.00017 µM	0.994
G401, 0.00051 µM	0.962
G401, 0.00152 µM	0.959
G401, 0.00457 µM	0.935
G401, 0.01372 µM	0.949
G401, 0.04115 µM	0.926
G401, 0.1235 µM	0.882
G401, 0.3704 µM	0.838
G401, 1.111 µM	0.78
G401, 3.333 µM	0.719
G401, 10 µM	0.627
HS729, 0.00017 µM	0.898
HS729, 0.00051 µM	0.929
HS729, 0.00152 µM	0.869
HS729, 0.00457 µM	0.894
HS729, 0.01372 µM	0.896
HS729, 0.04115 µM	0.902
HS729, 0.1235 µM	0.849
HS729, 0.3704 µM	0.843
HS729, 1.111 µM	0.846
HS729, 3.333 µM	0.82
HS729, 10 µM	0.794
KHOS-240S, 0.00017 µM	1.03
KHOS-240S, 0.00051 µM	1.03
KHOS-240S, 0.00152 µM	1.01
KHOS-240S, 0.00457 µM	0.999
KHOS-240S, 0.01372 µM	0.959
KHOS-240S, 0.04115 µM	0.949
KHOS-240S, 0.1235 µM	0.91
KHOS-240S, 0.3704 µM	0.8785
KHOS-240S, 1.111 µM	0.864
KHOS-240S, 3.333 µM	0.782
KHOS-240S, 10 µM	0.723
MES-SA, 0.00017 µM	0.871
MES-SA, 0.00051 µM	0.89
MES-SA, 0.00152 µM	0.855
MES-SA, 0.00457 µM	0.862
MES-SA, 0.01372 µM	0.847
MES-SA, 0.04115 µM	0.844
MES-SA, 0.1235 µM	0.754
MES-SA, 0.3704 µM	0.779
MES-SA, 1.111 µM	0.76
MES-SA, 3.333 µM	0.741
MES-SA, 10 µM	0.694
RD, 0.00017 µM	1.06
RD, 0.00051 µM	1.04
RD, 0.00152 µM	1.04
RD, 0.00457 µM	0.977
RD, 0.01372 µM	0.931
RD, 0.04115 µM	0.875
RD, 0.1235 µM	0.749
RD, 0.3704 µM	0.703
RD, 1.111 µM	0.632
RD, 3.333 µM	0.593
RD, 10 µM	0.543
SK-ES-1, 0.00017 µM	0.944
SK-ES-1, 0.00051 µM	0.961
SK-ES-1, 0.00152 µM	0.951
SK-ES-1, 0.00457 µM	0.956
SK-ES-1, 0.01372 µM	0.951
SK-ES-1, 0.04115 µM	0.929
SK-ES-1, 0.1235 µM	0.932
SK-ES-1, 0.3704 µM	0.925
SK-ES-1, 1.111 µM	0.925
SK-ES-1, 3.333 µM	0.925
SK-ES-1, 10 µM	0.87
SK-LMS-1, 0.00017 µM	0.942
SK-LMS-1, 0.00051 µM	0.955
SK-LMS-1, 0.00152 µM	0.953
SK-LMS-1, 0.00457 µM	0.945
SK-LMS-1, 0.01372 µM	0.875
SK-LMS-1, 0.04115 µM	0.708
SK-LMS-1, 0.1235 µM	0.6
SK-LMS-1, 0.3704 µM	0.601
SK-LMS-1, 1.111 µM	0.5484
SK-LMS-1, 3.333 µM	0.491
SK-LMS-1, 10 µM	0.37
SW872, 0.00017 µM	0.957
SW872, 0.00051 µM	0.985
SW872, 0.00152 µM	0.951
SW872, 0.00457 µM	0.938
SW872, 0.01372 µM	0.894
SW872, 0.04115 µM	0.758
SW872, 0.1235 µM	0.654
SW872, 0.3704 µM	0.58
SW872, 1.111 µM	0.58
SW872, 3.333 µM	0.562
SW872, 10 µM	0.545
SW982, 0.00017 µM	1.01
SW982, 0.00051 µM	1.01
SW982, 0.00152 µM	1.02
SW982, 0.00457 µM	1.01
SW982, 0.01372 µM	0.99
SW982, 0.04115 µM	0.956
SW982, 0.1235 µM	0.9336
SW982, 0.3704 µM	0.902
SW982, 1.111 µM	0.876
SW982, 3.333 µM	0.835
SW982, 10 µM	0.804
SW1353, 0.00017 µM	0.917
SW1353, 0.00051 µM	0.894
SW1353, 0.00152 µM	0.918
SW1353, 0.00457 µM	0.892
SW1353, 0.01372 µM	0.815
SW1353, 0.04115 µM	0.782
SW1353, 0.1235 µM	0.75
SW1353, 0.3704 µM	0.709
SW1353, 1.111 µM	0.724
SW1353, 3.333 µM	0.674
SW1353, 10 µM	0.652
VA-ES-BJ, 0.00017 µM	0.9961
VA-ES-BJ, 0.00051 µM	0.992
VA-ES-BJ, 0.00152 µM	0.985
VA-ES-BJ, 0.00457 µM	0.964
VA-ES-BJ, 0.01372 µM	0.947
VA-ES-BJ, 0.04115 µM	0.877
VA-ES-BJ, 0.1235 µM	0.8465
VA-ES-BJ, 0.3704 µM	0.836
VA-ES-BJ, 1.111 µM	0.808
VA-ES-BJ, 3.333 µM	0.78
VA-ES-BJ, 10 µM	0.742

Reference: the supplement of paper PMC10883282
